Columns and labels:
[1] = assay type: in vivo; settings: intravitreal injection, eyes imaged after 3 hours
Experimental: To access the release of encapsulated material, liposomes containing encapsulated αBT and annexin V-776 were administered via Intravitreal injection and the eyes were imaged after 3 hours.

[2] = assay type: in vivo; settings: rat, tail vein; 300 μl of 5% free or 1 ml of 0.2% encapsulated
Experimental: 300 μl of 5% fluorescein sodium or 1 ml of 0.2% encapsulated fluorescein sodium, were administered to the rat through the tail vain and the retina monitored. Free fluorescein was removed by use of ultracentrifugation and PD-10 columns as outlined earlier.
It is important to highlight that the retinal blood vessels were not seen with the encapsulated material (A-C) as they are without (D-F), although there is a hint of arterial wall fluorescence in the encapsulated treated eye at 34 minutes (B). […] They were absent from the non-encapsulated eyes. These focal patches of fluorescence are believed to be intact liposomes containing fluorescein. […] The appearance, of fluorescent patches or “monofocal leakages” of sodium flourescein is similar to that that has been described when BBB disruption occurs in the brain (see FIG. 20 from Natah, S. S. et al. J Appl Physiol 107: 1348-1356 2009).

[3] = assay type: in vivo; settings: rat, tail vein, 2 hours; 300 μl of 5% free or 1 ml of 0.2% encapsulated
Experimental: 300 μl of 5% fluorescein sodium or 1 ml of 0.2% encapsulated fluorescein sodium, were administered to the rat through the tail vain and the retina monitored. Free fluorescein was removed by use of ultracentrifugation and PD-10; columns as outlined earlier. After 2 hours; under general anaesthesia, the animals underwent fixation perfusion with 4% paraformaldehyde. Brains were stored in 4% paraformaldehyde overnight, following which 800 um slices were cut and examined under fluorescent confocal microscopy.
The images in FIG. 24 come from similar regions in the brain from an animal with intravenous encapsulated fluorescein sodium (A-B) compared to one with plain intravenous fluorescein sodium (C-D). Both fluorescence (A, C) and transmission (B, D) images are shown. […] This confirms the fact that encapsulation allows the fluorescein sodium to cross the BBB.
The appearance of fluorescent patches or “monofocal leakages” of sodium flourescein is similar to that that has been described when BBB disruption occurs in the brain, as discussed earlier (Natah, S. S. et al. J Appl Physiol 107: 1348-1356 2009).

[4] = In vivo labelling of retinal vasculature by alpha-bungarotoxin
From the text: The invention also provides alpha-bungarotoxin (αBT) for use in labelling the retinal vasculature of a subject. This is in vivo labelling. αBT is know to bind to nicotinic acetylcholine receptors (nAChRs) and is readily used to label the end plate of neuromuscular junctions ex vivo. It has not been applied to labelling in vivo due to it's potential neuromuscular inhibitory effects when used systemically. However, such problems are not seen when using it directly in the eye. The wall of the retinal vasculature, and in particular the arteries, is a muscular environment housing nAChRs. Therefore, αBT labels them specifically. This patterned labelling in the eye is something that is otherwise very difficult to achieve. Preferably, the αBT is administered directly to the retinal vasculature of the eye, for example, by intravitreal injection. Preferably, the αBT is labelled with an imaging moiety such as fluorescein.

Molecule: Annexin V-776: labelled annexin V, anionic phospholipid binding protein, given with liposomes
- release of cargo from liposomes [1]: successful release

Molecule: O=C1OC2(c3ccc(O)cc3Oc3cc(O)ccc32)c2ccccc21 [Fluorescein, fluorescein sodium]
- crossing of the blood retinal barrier [2]: unable to cross an intact blood retinal barrier and remains isolated to the vessels
- fluorescence in brain slices [3]: no signal at all

Molecule: alpha-bungarotoxin [αBT]
- labelling of retinal vessels [4]: specifically labels the arteries in the retina
